Patent US20020022657A1, “Methods for modulating neuronal cell death” (priority 1998, published 2002)

Tested on: Aβ-induced toxicity
Assay: Aβ-induced toxicity, neuroprotection by Aβ-interferer (FIG. 6)
Format: cell-based
Settings: Aβ: laminin molar ratio of 1:10^−3; internal positive control

laminin
Aβ-induced toxicity: neuroprotective
